Assay results reported in patent US10656089B2, “Systems, devices, and methods for time-resolved fluorescent spectroscopy” (Black Light Surgical, Inc., priority 2016, dated 2020).

Tested on: NADH levels in ex vivo brain sample (cortex)
Assay: continuous monitoring of NADH in an ex vivo brain sample by time-resolved fluorescence spectroscopy
Conditions: rabbit cortex ex vivo
Experimental: Changes in NADH level were assessed to determine changes in the metabolic status of the brain sample in response to oxygen depletion, stimulation with neuro-protective drugs, and other stimuli. During ATP production in aerobic respiration conditions, NADH is oxidized to NAD+. In low oxygen conditions, for example, in areas of hypoxia or ischemia after a stroke, NADH accumulates in cells and persistent oxygen depletion can lead to cell death and breakdown of NADH. The different NADH states and levels may allow for the assessment of the viability and vulnerability of cells in an ischemic environment. Fluctuations in NADH levels were evaluated by measuring the fluorescence emission from NADH […]. […]
The system comprised a Q-switched ND:YaG laser (Teem Photonics PNVM02510) 1804 running at 1 KHz which emitted laser pulse at a wavelength of about 350 nm and a pulse width of about 400 ps full width half maximum (FWHM). […] The probe 1800 comprised a central 600 um fiber 1805 to deliver the excitation light surrounded by twelve 200 um fibers to collect the responsive fluorescence signal. […] One bundle of collection fibers 1806a was coupled to a spectrometer (Ocean Optics, Maya) which monitored the fluorescence spectrum every 100 ms. […]

With `C=C(C)[C@H]1Cc2c(ccc3c2O[C@@H]2COc4cc(OC)c(OC)cc4[C@@H]2C3=O)O1` [rotenone] the “NADH levels (free and bound NADH fluorescence)” value (50 nM rotenone added to Kreb-Ringer bath after about 30 minutes baseline) was “increased NADH levels” and the NADH fluorescence detected (additional rotenone doses of 1 uM and 50 uM added at 10 minute intervals) was “further increases in fluorescence detected”.
